What was measured:
[1] = biological target: T1, thrombin (Bos taurus, UniProt P00735); assay: fibrinogen coagulation time (thrombin-induced); assay type: biochemical; conditions: bovine fibrinogen, thrombin 5 units/ml, borate saline buffer pH 7.4, 25° C; control 50-55 seconds; read-out: Concentration required to prolong the coagulation time by a factor of two
T1 construct: bovine fibrinogen as substrate
Description: Immediately after mixing, the reaction mixture was transferred from the ice bath to a bath maintained at 25° C. Coagulation times were taken as the period between the time of transference to the 25° C bath and the time of the first appearance of fibrin threads.

[2] = acute toxicity (LD50) by intraperitoneal administration in mice; conditions: mouse, in vivo, ip, mice (male, 20 g)
Description: On the other hand, LD50 values for N^2 -dansyl-N-butyl-L-argininamide and N^2 -dansyl-N-methyl-N-butyl-L-argininamide are 75 and 70 milligrams per kilogram, respectively.

| Structure (SMILES) | IC (2-fold clotting time) [1] | LD50 [2] |
| --- | --- | --- |
| COc1cccc2c(S(=O)(=O)N[C@@H](CCCNC(=N)N)C(=O)N(CC(=O)O)Cc3ccccc3)cccc12 [Sample 18, N^2-(5-methoxy-1-naphthalenesulfonyl)-L-arginyl-N-benzylglycine] | 2 µM | > 1000 mg/kg |
| COc1ccc2cc(S(=O)(=O)N[C@@H](CCCNC(=N)N)C(=O)N(CC(=O)O)Cc3ccccc3)cc(OC)c2c1 [Sample 10, N^2-(4,6-dimethoxy-2-naphthalenesulfonyl)-L-arginyl-N-benzylglycine] |  | > 1000 mg/kg |
| COc1cc2ccc(S(=O)(=O)N[C@@H](CCCNC(=N)N)C(=O)N(CCc3ccccc3)CC(=O)O)cc2cc1OC [Sample 6, N^2-(6,7-dimethoxy-2-naphthalenesulfonyl)-L-arginyl-N-phenethylglycine] |  | > 1500 mg/kg |
| CCCCN(C)C(=O)[C@H](CCCNC(=N)N)NS(=O)(=O)c1cccc2c(N(C)C)cccc12 [N^2 -dansyl-N-methyl-N-butyl-L-argininamide, reference compound] |  | 70 mg/kg |
| COc1cc2ccc(S(=O)(=O)N[C@@H](CCCNC(=N)N)C(=O)N(CC(=O)O)Cc3ccccc3)cc2cc1OC [Sample 2, N^2-(6,7-dimethoxy-2-naphthalenesulfonyl)-L-arginyl-N-benzylglycine] |  | > 1000 mg/kg |
| CCCCNC(=O)[C@H](CCCNC(=N)N)NS(=O)(=O)c1cccc2c(N(C)C)cccc12 [N^2 -dansyl-N-butyl-L-argininamide, reference compound] |  | 75 mg/kg |

From patent publication US4069318A, “N^2 -Alkoxynaphthalenesulfonyl-L-argininamides and the pharmaceutically acceptable salts thereof” (Mitsubishi Chemical Industries Ltd., priority 1974, dated 1978)
